BindingDB's records for PubMed 30795990 (n/a, 2019)
pIC50: −log10 of the molar value.

Target: Cyclin-dependent kinase 11B (Homo sapiens) (UniProt P21127)
Assay: Inhibition of GST-tagged human recombinant CDK11 (1 to 795 residues) expressed in baculovirus expression system

Sequence of Cyclin-dependent kinase 11B (Homo sapiens) (P21127 whole entry, looked up, the tested form may be a part): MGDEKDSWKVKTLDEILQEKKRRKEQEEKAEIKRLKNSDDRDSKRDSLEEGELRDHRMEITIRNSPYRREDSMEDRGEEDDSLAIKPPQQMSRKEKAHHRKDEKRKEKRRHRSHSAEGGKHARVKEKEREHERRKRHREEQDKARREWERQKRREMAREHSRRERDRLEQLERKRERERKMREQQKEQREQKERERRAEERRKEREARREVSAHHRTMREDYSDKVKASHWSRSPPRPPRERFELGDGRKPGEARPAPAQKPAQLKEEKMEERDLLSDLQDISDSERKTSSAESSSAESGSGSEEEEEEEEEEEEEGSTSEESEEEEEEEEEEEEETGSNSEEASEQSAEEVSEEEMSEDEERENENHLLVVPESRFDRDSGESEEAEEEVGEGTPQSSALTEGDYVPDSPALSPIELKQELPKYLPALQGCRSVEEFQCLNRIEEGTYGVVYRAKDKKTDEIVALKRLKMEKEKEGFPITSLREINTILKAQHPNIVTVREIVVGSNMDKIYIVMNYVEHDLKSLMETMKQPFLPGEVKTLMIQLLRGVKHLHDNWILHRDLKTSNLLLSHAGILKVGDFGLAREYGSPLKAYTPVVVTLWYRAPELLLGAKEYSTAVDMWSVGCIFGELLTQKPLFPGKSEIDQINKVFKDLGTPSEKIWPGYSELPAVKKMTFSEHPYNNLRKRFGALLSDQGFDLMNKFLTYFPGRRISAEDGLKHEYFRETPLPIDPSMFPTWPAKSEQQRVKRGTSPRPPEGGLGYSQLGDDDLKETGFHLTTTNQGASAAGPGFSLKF

O=C(c1ccc2c(c1)OCCO2)C1CCN(c2ncnc3sccc23)CC1
pIC50: < 6.00
